# Test results published in article PMC7808739, “Repurposing existing drugs: identification of SARS-CoV-2 3C-like protease inhibitors” (Journal of Enzyme Inhibition and Medicinal Chemistry, 2021).
# Structures can show the parent of a compound that is named as a salt. Where two headings read alike, the source gives them in different places.
# Molecular target: SARS-CoV-2 3CLpro (Severe acute respiratory syndrome coronavirus 2, UniProt P0DTD1)
# Assay: biochemical
# Type: biochemical
# Details: for SARS-CoV-2 3CLpro inhibitor grade in words: grading by IC50 in the IQF peptide assay
# [1] = IC50, inhibition of SARS-CoV-2 3CLpro activity
# [2] = 0.25 µM protease, 1.25 µM IQF peptide substrate, drugs 0–100 µM preincubated 1 h at 37 °C, then 3 h, N = 3, mean ± SEM, read-out: IC50, inhibition of SARS-CoV-2 3CLpro activity
compound,measurement,setting,value
Oc1ncnc2[nH]ncc12 [Allopurinol],IC50,[1],3.77 µM
NC(=O)C[S@@+]([O-])C(c1ccccc1)c1ccccc1 [Armodafinil],IC50,[2],17.9 µM
C=C(c1ccc(C(=O)O)cc1)c1cc2c(cc1C)C(C)(C)CCC2(C)C [Bexarotene],IC50,[2],26.5 µM
same,SARS-CoV-2 3CLpro inhibitor grade in words,,moderate
CC(=O)Oc1ccc(C(c2ccc(OC(C)=O)cc2)c2ccccn2)cc1 [Bisacodyl],IC50,[1],17.5 µM
CN(Cc1ccc(C(C)(C)C)cc1)Cc1cccc2ccccc12 [Butenafine hydrochloride],IC50,[1],5.4 µM
COCC1=C(C(=O)OC(C)OC(=O)OC(C)C)N2C(=O)[C@@H](NC(=O)/C(=N\OC)c3csc(N)n3)[C@H]2SC1 (stereo partly shown) [Cefpodoxime proxetil],IC50,[1],32.4 µM
same,SARS-CoV-2 3CLpro inhibitor grade in words,,moderate
O=C(O)COCCN1CCN(C(c2ccccc2)c2ccc(Cl)cc2)CC1 (stereo not shown) [Cetirizine],IC50,[1],25.6 µM
CCCCCCCCCCCCCCCC(=O)O[C@@H]1[C@@H](O)[C@@H](O)[C@@H]([C@H](NC(=O)[C@@H]2C[C@@H](CCC)CN2C)[C@H](C)Cl)O[C@@H]1SC.Cl [Clindamycin palmitate hydrochloride],IC50,[2],33.2 µM
same,SARS-CoV-2 3CLpro inhibitor grade in words,,moderate
CCC(=O)O[C@]1(C(=O)CCl)[C@@H](C)C[C@H]2[C@@H]3CCC4=CC(=O)C=C[C@]4(C)[C@@]3(F)[C@@H](O)C[C@@]21C [Clobetasol propionate],IC50,[2],18.1 µM
C=C(CC)C(=O)c1ccc(OCC(=O)O)c(Cl)c1Cl [Ethacrynic acid],IC50,[2],1.11 µM
CC(C)C[C@H](NC(=O)[C@@H](COC(C)(C)C)NC(=O)[C@H](Cc1ccc(O)cc1)NC(=O)[C@H](CO)NC(=O)[C@H](Cc1c[nH]c2ccccc12)NC(=O)[C@H](Cc1cnc[nH]1)NC(=O)[C@@H]1CCC(=O)N1)C(=O)N[C@@H](CCCNC(=N)N)C(=O)N1CCC[C@H]1C(=O)NNC(N)=O [Goserelin acetate],IC50,[1],12 µM
COc1ccc2cc([C@H](C)C(=O)O)ccc2c1 [Naproxen],IC50,[1],3.45 µM
O=C(c1ccc(OCCN2CCCCC2)cc1)c1c(-c2ccc(O)cc2)sc2cc(O)ccc12 [Raloxifene hydrochloride],IC50,[2],5.61 µM
C=CC[N+]1([C@H]2C[C@H]3[C@@H]4CC[C@H]5C[C@H](O)[C@@H](N6CCOCC6)C[C@]5(C)[C@H]4CC[C@]3(C)[C@H]2OC(C)=O)CCCC1 [Rocuronium bromide],IC50,[2],17.5 µM
CC(C)(C)NC(=O)[C@@H]1C[C@@H]2CCCC[C@@H]2CN1C[C@@H](O)[C@H](Cc1ccccc1)NC(=O)[C@H](CC(N)=O)NC(=O)c1ccc2ccccc2n1 [Saquinavir mesylate],IC50,[1],9.92 µM
"CO[C@H]1C[C@@H]2CC[C@@H](C)[C@@](O)(O2)C(=O)C(=O)N2CCCC[C@H]2C(=O)O[C@H]([C@H](C)C[C@@H]2CC[C@@H](O)[C@H](OC)C2)CC(=O)[C@H](C)/C=C(\C)[C@@H](O)[C@@H](OC)C(=O)[C@H](C)C[C@H](C)/C=C/C=C/C=C/1C [Sirolimus (Rapamycin), Sirolimus]",IC50,[2],22.3 µM
N[C@@H]1C[C@H]1c1ccccc1 [Tranylcypromine hydrochloride],IC50,[1],8.64 µM
Colistin sulphate,IC50,[2],23.2 µM
same,SARS-CoV-2 3CLpro inhibitor grade in words,,moderate
